Results on 122 molecules are retold here after a melting point compilation (Tetko et al.).

Some results are limits rather than exact numbers.

With `Nc1c([N+](=O)[O-])cc(F)c(F)c1Br`, the melting point lay in the range of 104 to 106 °C.

The molecule `O=C1NC(=O)c2ncccc21` registered a melting point of 241 to 243 °C.

In turn, `Cn1cc(-c2ncc(C=O)s2)cn1` returned a melting point of 141 to 143 °C.

For the molecule `O=[N+]([O-])c1cc(Br)cc(S(=O)(=O)Cl)c1`, the melting point fell in the range of 47 to 49 °C.

With `COc1cccc(-c2nnc(N)o2)c1OC`, the melting point is 185 to 187 °C.

`CN(C)C1(C(=O)O)CCCSC1` (configuration not stated) came in with a melting point of 196 to 198 °C.

In turn, `O=C(O)CNC(=O)/C=C/c1ccco1` displayed a melting point of 218 to 221 °C.

As to `O=C(O)CCc1cc(Br)cs1`, the melting point is 76 to 78 °C.

For `Clc1ccc2cc(Br)ccc2n1`, the melting point lay in the range of 159 to 161 °C.

`N#Cc1c(C(F)(F)F)cc(=O)[nH]c1SCC(=O)O` returned a melting point of 200 to 204 °C.

Take `O=C(O)C1CCCN1C(=O)c1ccc([N+](=O)[O-])o1` (configuration not stated): the melting point lay in the range of 154 to 156 °C.

`CS(=O)(=O)N(c1ccc(N)cc1Br)S(C)(=O)=O`: the melting point was in the range of 179 to 181 °C.

Molecule `O=C(O)CC1=NNC(=O)C1` returned a melting point of 195 to 197 °C.

The molecule `CN(CCO)C(=O)c1ccc(O)cc1` gave a melting point of 123 to 125 °C.

Consider `Cc1c(C(=O)O)sc2ccc(F)cc12`, for which the melting point lay within 289 to 291 °C.

Turning to `Nn1c(S)nnc1-c1ccc(Cl)cc1Cl`, the melting point was in the range of 90 to 92 °C.

For the molecule `NCc1ccc(C(N)=O)nc1`, the melting point fell in the range of 146 to 148 °C.

As for `COc1ccc(CCC(=O)CC#N)cc1`, the melting point lay within 58 to 60 °C.

In the case of `O=C1c2ccncc2C(=O)N1CCO`, the melting point is 106 to 108 °C.

The molecule `Nc1cccc(OCC(=O)Nc2ccccc2)c1` displayed a melting point of 120 to 122 °C.

As to `Cc1nn(C)c(Oc2cccnc2)c1C=O`, the melting point fell in the range of 91 to 93 °C.

`CC(=O)Nc1ccc(NC(=O)CC#N)cc1` registered a melting point of 305 to 307 °C.

`O=C1NC2(CCN(Cc3ccccc3)CC2)CO1` displayed a melting point of 164 to 166 °C.

Take `CC(C)Nc1ccc(Br)cn1`: the melting point was in the range of 69 to 71 °C.

As to `CC(=O)Cn1c(CCl)nc2ccccc2c1=O`, the melting point fell in the range of 167 to 169 °C.

Take `O=C(Nc1sccc1C(=O)O)c1ccco1`: the melting point fell in the range of 196 to 198 °C.

Consider `Cc1[nH]c2ccc(F)cc2c1CC(=O)O`, for which the melting point lay within 180 to 182 °C.

For the molecule `Cc1cc(N)ccc1C(=O)OC(C)(C)C`, the melting point was 69 to 71 °C.

`Cc1csc(Sc2ccc(N)cc2)n1` displayed a melting point of 99 to 101 °C.

For `Brc1ccc2[nH]c3c(c2c1)CNCC3`, the melting point lay within 216 to 218 °C.

`CS(=O)(=O)NCC(=O)c1ccccc1` returned a melting point of 113 to 115 °C.

Take `Cn1cc(NC(=O)OCC(F)(F)F)ccc1=O`: the melting point was in the range of 208 to 210 °C.

Molecule `CCOc1ccc(O)c(C=O)c1` came in with a melting point of 49 to 51 °C.

For the molecule `CN1CCC(=O)Nc2cc(C(=O)O)ccc21`, the melting point fell in the range of 249 to 251 °C.

Turning to `CSc1ccc(S(=O)(=O)Cl)cc1`, the melting point was 46 to 48 °C.

Regarding `O=C(O)CCCN1C(=S)CSC1=S`, the melting point lay within 122 to 124 °C.

Consider `CCCS(=O)(=O)Nc1ccc(N)cc1`, for which the melting point was 111 to 113 °C.

For `Nc1nc2c(s1)CCCCCC2`, the melting point was 202 to 204 °C.

The molecule `Fc1cc2nc(Cl)ccc2cc1Br` returned a melting point of 161 to 163 °C.

For `NC(=O)Nc1ccc(Cl)c(N)c1`, the melting point fell in the range of 176 to 178 °C.

Turning to `CCCCc1c(C)nc2nc(S)nn2c1C`, the melting point was in the range of 248 to 250 °C.

`O=C(O)C1(C(F)(F)F)CCN(Cc2ccccc2)C1` (configuration not stated) displayed a melting point of 210 to 212 °C.

In turn, `O=C1C=CC(=O)N1c1cc(Cl)cc(Cl)c1` yielded a melting point of 139 to 141 °C.

`Cc1cc(C(=O)CCl)c(C)cc1Br` had a melting point of 79 to 81 °C.

The molecule `Nc1ccc2[nH]c(-c3cc(F)ccc3F)nc2c1` returned a melting point of 188 to 190 °C.

As for `Cc1ccc(C(N)CC(=O)O)o1` (configuration not stated), the melting point lay in the range of 199 to 201 °C.

`O=C(O)c1nn(-c2ccccc2Cl)c2c1CCCC2` showed a melting point of 232 to 234 °C.

The molecule `O=C(O)Cc1cn(-c2ccccc2)nc1-c1ccc(F)cc1` had a melting point of 145 to 147 °C.

In turn, `O=C(O)Cn1nc(-c2ccccc2)ccc1=O` yielded a melting point of 237 to 239 °C.

Consider `CNc1ncccc1C(=O)O`, for which the melting point fell in the range of 220 to 222 °C.

Turning to `COCc1c(C(=O)O)sc2cccc(F)c12`, the melting point fell in the range of 130 to 139 °C.

`O=[N+]([O-])c1cc(S(=O)(=O)N2CCOCC2)ccc1Cl` showed a melting point of 153 to 155 °C.

The molecule `Cc1n[nH]c(-c2ccc(Cl)c(Cl)c2)n1` had a melting point of 200 to 202 °C.

Molecule `O=C(O)C1COc2ccc(Br)cc21` (configuration not stated) showed a melting point of 114 to 116 °C.

Molecule `Cc1cccc(-c2nnc(S)o2)c1` came in with a melting point of 157 to 161 °C.

`CC(C)(C)c1c(C(=O)O)nnn1-c1ccc(Cl)cc1F` gave a melting point of 152 to 154 °C.

`O=C(O)c1ccc(Oc2ccc(F)cc2)cc1` gave a melting point of 170 to 174 °C.

For `NC(=O)c1ccc(C(=O)O)s1`, the melting point lay within 317 to 319 °C.

`CCn1c(S)nnc1-c1ccccc1OC` gave a melting point of 171 to 173 °C.

In the case of `NC(=NO)C12CC3CC(CC(C3)C1)C2`, the melting point is 152 to 154 °C.

In the case of `Cn1c(Cl)cnc1CC(N)=S`, the melting point is 142 to 144 °C.

`Cc1cccc(Oc2ncccc2N)c1C` registered a melting point of 147 to 149 °C.

As for `CCOC(=O)c1c(C)[nH]c(C(C)=O)c1C`, the melting point was 115 to 117 °C.

On to `NC(=S)c1ccoc1`, for which the melting point lay within 103 to 105 °C.

The molecule `C#CCNC(=O)CCl` gave a melting point of 63 to 67 °C.

`CCCCOc1ccc(-c2cc(N)on2)cc1` returned a melting point of 112 to 114 °C.

As to `CC1(C)CC(=O)c2cc(Br)cc(Cl)c2O1`, the melting point is 48 to 50 °C.

The molecule `CC(=CC(=O)O)c1ccccc1F` registered a melting point of 101 to 103 °C.

Consider `Cc1ccc(S(=O)(=O)Cl)c(C)c1OCC(=O)O`, for which the melting point lay in the range of 144 to 146 °C.

`OCc1ccc2c(c1)NCC2` gave a melting point of 49 to 51 °C.

`O=C(O)CCNS(=O)(=O)c1ccccc1C(F)(F)F` yielded a melting point of 142 to 144 °C.

As for `Cn1c(=O)c2c(n(Cc3ccccc3)c1=O)NC(=O)C2CC(=O)O` (configuration not stated), the melting point was in the range of 243 to 247 °C.

The molecule `COC(=O)Cn1nc2ccc(Cl)nn2c1=O` returned a melting point of 158 to 160 °C.

In turn, `Fc1ccccc1-c1nnc(S)[nH]1` came in with a melting point of 154 to 156 °C.

Molecule `O=C(O)c1ccc(NC(=O)C23CC4CC(CC(C4)C2)C3)cc1` yielded a melting point of 284 to 286 °C.

Molecule `Cc1nc(O)c2c(n1)CCCC2` had a melting point of 206 to 208 °C.

Molecule `O=C(O)Cc1cn2ccsc2n1` yielded a melting point of 180 to 184 °C.

Turning to `O=C(CCl)NCc1ccc(COc2ccccc2)cc1`, the melting point fell in the range of 123 to 125 °C.

Molecule `COc1cc([N+](=O)[O-])cc2sc(N)nc12` came in with a melting point of 279 to 281 °C.

Turning to `CC(C)(C)OC(=O)NC(C)(C)c1noc(CCl)n1`, the melting point fell in the range of 79 to 81 °C.

`O=C(CCl)NCC1COc2ccccc2O1` (configuration not stated): the melting point lay within 212 to 214 °C.

Turning to `O=C(O)c1ccc(S(=O)(=O)Nc2nccs2)cc1`, the melting point was in the range of 289 to 291 °C.

For the molecule `N#Cc1cc(Br)c2cc[nH]c2c1`, the melting point was 139 to 141 °C.

The molecule `CNc1cc(Cl)nc(C)n1` yielded a melting point of 143 to 145 °C.

Molecule `CCn1ccnc(Cl)c1=O` registered a melting point of 52 to 54 °C.

For `Cc1ccc(N)c2cccnc12`, the melting point is 144 to 146 °C.

Take `Nc1cc(Cl)cc(Br)c1O`: the melting point lay in the range of 83 to 85 °C.

Molecule `CCN(CC)C(=O)Cc1ccc(N)cc1` had a melting point of 87 to 89 °C.

Molecule `O=C(O)CSC1CCS(=O)(=O)C1` (configuration not stated) came in with a melting point of under 17 °C.

For `Cc1cc(S(=O)(=O)Cl)cc(C(=O)O)c1F`, the melting point lay in the range of 169 to 171 °C.

On to `O=C(CC1(C(=O)O)CCCCC1)NC1CC1`, for which the melting point lay within 151 to 153 °C.

Molecule `N#CSCC(=O)c1ccccc1C(F)(F)F` registered a melting point of 49 to 51 °C.

In turn, `CC1(c2ccc(Cl)c(Cl)c2)NC(=O)NC1=O` (configuration not stated) returned a melting point of 203 to 207 °C.

`CCN(CC)S(=O)(=O)c1ccc(N2CCC(C(=O)O)CC2)c([N+](=O)[O-])c1` had a melting point of 204 to 206 °C.

Take `CS(=O)(=O)Nc1cc(Br)ccc1F`: the melting point lay in the range of 143 to 145 °C.

For `O=C(O)Cc1ccc(C(F)(F)F)cc1[N+](=O)[O-]`, the melting point fell in the range of 145 to 147 °C.

Molecule `O=Cc1ccccc1OCc1cn2ccccc2n1` registered a melting point of 123 to 125 °C.

Molecule `N#Cc1c(Cl)nc2ccccn12` registered a melting point of 181 to 183 °C.

Molecule `Cc1ccc(-c2nn(Cc3ccccc3)cc2C=O)cc1C` had a melting point of 79 to 81 °C.

For the molecule `CCOC(=O)c1sc(NCCCC(=O)O)nc1-c1ccccc1`, the melting point fell in the range of 120 to 122 °C.

With `COc1cc(/C=C/C(=O)O)cc2c1OCCO2`, the melting point is 182 to 185 °C.

Take `COC(=O)C[C@H](NC(=O)OCC1c2ccccc2-c2ccccc21)C(=O)O`: the melting point lay in the range of 115 to 117 °C.

In the case of `Nc1nnc(-c2ccncc2)[nH]1`, the melting point was in the range of 271 to 273 °C.

In the case of `O=C(O)Cc1ccc(S(=O)(=O)CC(F)F)cc1`, the melting point fell in the range of 135 to 137 °C.

Take `O=C(O)c1csc(-c2ccc(Cl)s2)n1`: the melting point lay in the range of 247 to 249 °C.

Take `NC(CC(=O)O)c1cnn(-c2ccccc2)c1` (configuration not stated): the melting point lay within 219 to 221 °C.

The molecule `COc1ccc(C(O)C2CC2)c(C)c1` (configuration not stated) came in with a melting point of 39 to 41 °C.

In the case of `O=C(O)C1CNCc2ccccc21` (configuration not stated), the melting point lay in the range of 233 to 235 °C.

In turn, `O=S(=O)(Cl)C1=Cc2ccccc2CC1` showed a melting point of 59 to 61 °C.

`O=S1CCCNc2ccccc21` (configuration not stated) came in with a melting point of 122 to 124 °C.

In turn, `O=C(O)C1CCc2[nH]ncc2C1` (configuration not stated) showed a melting point of 229 to 231 °C.

In turn, `Cc1ccccc1NC(=O)CCl` gave a melting point of 75 to 77 °C.

For the molecule `Cc1ccc(C#N)cc1S(=O)(=O)Cl`, the melting point fell in the range of 82 to 84 °C.

Take `Cc1cc(N)nn1-c1ccccc1`: the melting point lay in the range of 79 to 81 °C.

`NNS(=O)(=O)c1ccc(OC(F)(F)F)cc1` registered a melting point of 105 to 107 °C.

In turn, `O=C(O)c1ccc(Sc2ccccn2)cc1` came in with a melting point of 179 to 181 °C.

Regarding `O=c1cc(CCl)nc2ccccn12`, the melting point fell in the range of 173 to 175 °C.

As for `NS(=O)(=O)c1cc([N+](=O)[O-])ccc1Br`, the melting point is 204 to 206 °C.

`Cn1cncc1C(N)=O`: the melting point was in the range of 178 to 180 °C.

Molecule `OCCc1ccc2ccccc2c1` registered a melting point of 66 to 68 °C.

The molecule `N#CCCN1CCS1(=O)=O` gave a melting point of 52 to 54 °C.

Molecule `Cc1cc(NN)nc(-c2ccccn2)n1` showed a melting point of 175 to 177 °C.

The term melting point denotes the temperature of the solid-liquid transition.
